What was measured:
GSK-3β = GSK-3β (Homo sapiens, UniProt P49841); assay: Protein kinase activity in vitro; assay type: biochemical
PKA, non-selective = assay: Protein kinase activity in vitro; assay type: biochemical
PKCγ = PKCγ (Homo sapiens, UniProt P05129); assay: Protein kinase activity in vitro; assay type: biochemical
p38α = p38α (Homo sapiens, UniProt Q16539); assay: Protein kinase activity in vitro; assay type: biochemical
CHK1 = CHK1 (Homo sapiens, UniProt O14757); assay: Protein kinase activity in vitro; assay type: biochemical
JNK1α1 = JNK1α1 (Homo sapiens, UniProt P45983); assay: Protein kinase activity in vitro; assay type: biochemical
CHK2 = CHK2 (Homo sapiens, UniProt O96017); assay: Protein kinase activity in vitro; assay type: biochemical
PKCβ2 = PKCβ2 (Homo sapiens, UniProt P05771); assay: Protein kinase activity in vitro; assay type: biochemical
PKCα = PKCα (Homo sapiens, UniProt P17252); assay: Protein kinase activity in vitro; assay type: biochemical
Cdk5/p35 = Cdk5/p35 (Homo sapiens, UniProt Q00535); assay: Protein kinase activity in vitro; assay type: biochemical
PKCβ1 = PKCβ1 (Homo sapiens, UniProt P05771); assay: Protein kinase activity in vitro; assay type: biochemical
PKBα/Akt1 = PKBα/Akt1 (Homo sapiens, UniProt P31749); assay: Protein kinase activity in vitro; assay type: biochemical
PKCε = PKCε (Homo sapiens, UniProt Q02156); assay: Protein kinase activity in vitro; assay type: biochemical
Lyn A = Lyn A (Homo sapiens, UniProt P07948); assay: Protein kinase activity in vitro; assay type: biochemical; settings: 10 μM (two lines printed)
IKK-1 = IKK-1 (Homo sapiens, UniProt O15111); assay: Protein kinase activity in vitro; assay type: biochemical
PKCζ = PKCζ (Homo sapiens, UniProt Q05513); assay: Protein kinase activity in vitro; assay type: biochemical
HER2 receptor = HER2 receptor (Homo sapiens, UniProt P04626); assay: Protein kinase activity in vitro; assay type: biochemical
IKK-2 = IKK-2 (Homo sapiens, UniProt O14920); assay: Protein kinase activity in vitro; assay type: biochemical
p70^56k = p70^56k (Homo sapiens, UniProt P23443); assay: Protein kinase activity in vitro; assay type: biochemical
ALK5 = ALK5 (Homo sapiens, UniProt P36897, T204D); assay: biochemical
Protocol: The His-tagged, constitutively active ALK5 (T204D) and Smad3 full protein were expressed in insect cells using the Invitrogen BacNBlue baculovirus expression system. Expressed proteins were purified with Qiagen Ni-NTA resin column. The purified smad3 protein 200 ng was mixed with 100 μL of 0.1 M sodium bicarbonate coating buffer and coated into Flash-Plates by pipetting. Plates were covered and incubated at 4° C. for 16 hours. Then the plates were washed 3 times with 200 μL of coating buffer and allowed to block in 1% BSA in PBS at room temperature for 1 hour. The purified ALK5 protein 100 ng was mixed with 100 μL of reaction buffer containing 20 mM Tris-HCl (pH 7.4), 5 mM MgCl2, 1 mM CaCl2, 1 mM DTT, 1 μM ATP and 2 μCi ?-^32p-ATP, and 1 μL of each test compound of formula (I) prepared in 100% DMSO solution at different concentrations. The assay was then initiated with the addition of ALK5 reaction mixture into Smad3-coated Flash-Plates, followed by incubation at 30° C. for 3 hours. After incubation, the assay buffer was removed and washed 3 times with 200 μL of 10 mM sodium pyrophosphate solution. Then, the Flash-Plates were air-dried and counted on a Packard TopCount.

Cdk2/Cyclin A = Cdk2/Cyclin A (Homo sapiens, UniProt P24941); assay: Protein kinase activity in vitro; assay type: biochemical
EGF Receptor = EGF Receptor (Homo sapiens, UniProt P00533); assay: Protein kinase activity in vitro; assay type: biochemical
Cdk1/Cyclin B = Cdk1/Cyclin B (Homo sapiens, UniProt P06493); assay: Protein kinase activity in vitro; assay type: biochemical
PKCη = PKCη (Homo sapiens, UniProt P24723); assay: Protein kinase activity in vitro; assay type: biochemical
p38δ = p38δ (Homo sapiens, UniProt O15264); assay: Protein kinase activity in vitro; assay type: biochemical
Lck = Lck (Homo sapiens, UniProt P06239); assay: Protein kinase activity in vitro; assay type: biochemical
MEK1 = MEK1 (Homo sapiens, UniProt Q02750); assay: Protein kinase activity in vitro; assay type: biochemical
PKCμ = PKCμ (Homo sapiens, UniProt Q15139); assay: Protein kinase activity in vitro; assay type: biochemical
ERK1 = ERK1 (Homo sapiens, UniProt P27361); assay: Protein kinase activity in vitro; assay type: biochemical
JNK2α2 = JNK2α2 (Homo sapiens, UniProt P45984); assay: Protein kinase activity in vitro; assay type: biochemical
Insulin receptor = Insulin receptor (Homo sapiens, UniProt P06213); assay: Protein kinase activity in vitro; assay type: biochemical
p38β = p38β (Homo sapiens, UniProt Q15759); assay: Protein kinase activity in vitro; assay type: biochemical
PDK1 = PDK1 (Homo sapiens, UniProt O15530); assay: Protein kinase activity in vitro; assay type: biochemical
pp60^C-SRC = pp60^C-SRC (Homo sapiens, UniProt P12931); assay: Protein kinase activity in vitro; assay type: biochemical
Ca^2+/Calmodulin-Dep. II = assay: Protein kinase activity in vitro; assay type: biochemical
p38γ = p38γ (Homo sapiens, UniProt P53778); assay: Protein kinase activity in vitro; assay type: biochemical
PKCδ = PKCδ (Homo sapiens, UniProt Q05655); assay: Protein kinase activity in vitro; assay type: biochemical

Chain of JNK2α2 (P45984 whole entry): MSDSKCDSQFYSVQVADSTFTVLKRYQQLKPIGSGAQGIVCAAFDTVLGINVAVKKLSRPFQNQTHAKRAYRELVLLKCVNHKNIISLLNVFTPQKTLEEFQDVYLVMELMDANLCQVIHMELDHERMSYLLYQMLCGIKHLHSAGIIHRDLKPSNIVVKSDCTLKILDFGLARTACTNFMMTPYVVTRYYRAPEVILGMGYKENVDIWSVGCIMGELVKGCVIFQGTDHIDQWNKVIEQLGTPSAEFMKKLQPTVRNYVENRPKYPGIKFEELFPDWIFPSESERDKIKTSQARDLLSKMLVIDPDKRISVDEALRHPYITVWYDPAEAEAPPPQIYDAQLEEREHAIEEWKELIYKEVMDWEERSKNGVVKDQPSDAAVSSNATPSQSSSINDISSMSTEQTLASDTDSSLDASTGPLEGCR
Chain of Lyn A (P07948 whole entry, species assumed): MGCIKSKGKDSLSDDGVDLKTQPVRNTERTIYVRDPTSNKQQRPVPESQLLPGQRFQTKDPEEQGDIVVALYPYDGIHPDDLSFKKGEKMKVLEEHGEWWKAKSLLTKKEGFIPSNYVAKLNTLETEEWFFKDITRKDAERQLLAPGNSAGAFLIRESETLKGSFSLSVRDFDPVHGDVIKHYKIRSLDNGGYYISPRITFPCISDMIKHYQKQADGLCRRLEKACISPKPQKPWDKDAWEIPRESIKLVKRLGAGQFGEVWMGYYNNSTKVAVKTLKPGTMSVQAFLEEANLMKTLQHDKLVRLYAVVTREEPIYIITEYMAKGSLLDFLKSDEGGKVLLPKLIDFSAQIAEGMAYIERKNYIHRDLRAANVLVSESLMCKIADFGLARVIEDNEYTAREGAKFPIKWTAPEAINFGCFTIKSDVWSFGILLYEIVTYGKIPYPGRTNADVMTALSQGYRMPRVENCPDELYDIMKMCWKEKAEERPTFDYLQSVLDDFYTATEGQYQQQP
Chain of p38α (Q16539 whole entry): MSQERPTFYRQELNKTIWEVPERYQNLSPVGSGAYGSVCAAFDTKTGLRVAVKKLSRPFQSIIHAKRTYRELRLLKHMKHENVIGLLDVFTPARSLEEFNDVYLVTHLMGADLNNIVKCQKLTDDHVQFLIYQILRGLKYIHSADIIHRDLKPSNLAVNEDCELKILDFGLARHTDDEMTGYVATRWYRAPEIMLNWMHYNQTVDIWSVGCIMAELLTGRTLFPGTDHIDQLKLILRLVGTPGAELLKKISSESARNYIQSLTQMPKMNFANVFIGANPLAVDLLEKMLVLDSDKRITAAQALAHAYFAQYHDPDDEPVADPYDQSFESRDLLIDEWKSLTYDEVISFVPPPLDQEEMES
Chain of PKCμ (Q15139 whole entry): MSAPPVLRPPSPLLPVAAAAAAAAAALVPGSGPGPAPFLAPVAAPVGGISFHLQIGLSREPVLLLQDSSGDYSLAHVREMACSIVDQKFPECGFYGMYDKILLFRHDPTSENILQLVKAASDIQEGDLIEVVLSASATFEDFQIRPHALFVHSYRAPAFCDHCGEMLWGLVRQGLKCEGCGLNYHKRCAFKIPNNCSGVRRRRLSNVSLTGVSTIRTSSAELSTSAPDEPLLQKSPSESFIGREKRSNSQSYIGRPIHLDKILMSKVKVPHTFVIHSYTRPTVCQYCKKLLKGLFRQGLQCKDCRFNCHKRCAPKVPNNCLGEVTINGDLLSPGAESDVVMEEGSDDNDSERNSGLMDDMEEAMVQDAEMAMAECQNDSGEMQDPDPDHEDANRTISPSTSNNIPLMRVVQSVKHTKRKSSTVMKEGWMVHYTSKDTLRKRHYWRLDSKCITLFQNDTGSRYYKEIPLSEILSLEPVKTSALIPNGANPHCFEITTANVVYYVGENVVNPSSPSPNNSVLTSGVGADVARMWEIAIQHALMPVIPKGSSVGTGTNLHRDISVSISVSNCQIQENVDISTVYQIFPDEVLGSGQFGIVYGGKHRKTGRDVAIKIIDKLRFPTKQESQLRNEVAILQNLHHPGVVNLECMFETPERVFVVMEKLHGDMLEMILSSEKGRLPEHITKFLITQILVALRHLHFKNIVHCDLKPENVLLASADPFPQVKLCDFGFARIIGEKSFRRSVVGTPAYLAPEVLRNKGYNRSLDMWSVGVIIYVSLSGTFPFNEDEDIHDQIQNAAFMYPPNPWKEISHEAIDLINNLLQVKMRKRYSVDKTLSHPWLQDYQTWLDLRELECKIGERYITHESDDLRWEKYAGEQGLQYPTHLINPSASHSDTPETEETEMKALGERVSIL
Chain of MEK1 (Q02750 whole entry, species assumed): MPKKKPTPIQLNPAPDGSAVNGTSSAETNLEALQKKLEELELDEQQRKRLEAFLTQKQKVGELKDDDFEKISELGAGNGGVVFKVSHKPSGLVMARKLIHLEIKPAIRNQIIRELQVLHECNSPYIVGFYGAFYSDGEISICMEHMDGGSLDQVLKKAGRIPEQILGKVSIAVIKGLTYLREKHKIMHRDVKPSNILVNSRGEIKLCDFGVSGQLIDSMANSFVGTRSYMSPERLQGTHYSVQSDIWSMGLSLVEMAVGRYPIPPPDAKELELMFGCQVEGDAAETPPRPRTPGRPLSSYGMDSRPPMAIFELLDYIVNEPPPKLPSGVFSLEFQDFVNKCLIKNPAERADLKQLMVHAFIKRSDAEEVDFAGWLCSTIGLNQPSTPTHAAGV
Chain of IKK-2 (O14920 whole entry, species assumed): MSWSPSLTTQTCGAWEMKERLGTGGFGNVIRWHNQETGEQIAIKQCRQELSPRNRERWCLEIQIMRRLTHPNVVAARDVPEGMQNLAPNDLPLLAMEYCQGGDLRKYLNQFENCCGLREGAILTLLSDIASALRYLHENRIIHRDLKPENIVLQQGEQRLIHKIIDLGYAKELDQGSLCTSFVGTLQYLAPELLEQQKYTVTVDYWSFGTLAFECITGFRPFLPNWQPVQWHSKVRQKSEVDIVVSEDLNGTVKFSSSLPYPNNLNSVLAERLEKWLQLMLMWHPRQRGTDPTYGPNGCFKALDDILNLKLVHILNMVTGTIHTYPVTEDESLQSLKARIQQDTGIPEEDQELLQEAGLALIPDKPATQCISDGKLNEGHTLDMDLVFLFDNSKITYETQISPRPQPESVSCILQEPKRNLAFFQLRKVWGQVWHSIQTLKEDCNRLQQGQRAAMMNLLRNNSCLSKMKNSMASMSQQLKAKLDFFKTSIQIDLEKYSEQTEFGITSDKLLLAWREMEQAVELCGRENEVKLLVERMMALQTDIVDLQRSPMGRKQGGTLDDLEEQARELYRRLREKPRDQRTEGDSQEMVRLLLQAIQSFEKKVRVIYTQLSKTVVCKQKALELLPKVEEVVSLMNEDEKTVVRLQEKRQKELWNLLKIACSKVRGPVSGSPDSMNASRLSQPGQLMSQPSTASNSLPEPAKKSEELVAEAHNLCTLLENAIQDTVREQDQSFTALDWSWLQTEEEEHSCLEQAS
Chain of Cdk1/Cyclin B (P06493 whole entry, species assumed): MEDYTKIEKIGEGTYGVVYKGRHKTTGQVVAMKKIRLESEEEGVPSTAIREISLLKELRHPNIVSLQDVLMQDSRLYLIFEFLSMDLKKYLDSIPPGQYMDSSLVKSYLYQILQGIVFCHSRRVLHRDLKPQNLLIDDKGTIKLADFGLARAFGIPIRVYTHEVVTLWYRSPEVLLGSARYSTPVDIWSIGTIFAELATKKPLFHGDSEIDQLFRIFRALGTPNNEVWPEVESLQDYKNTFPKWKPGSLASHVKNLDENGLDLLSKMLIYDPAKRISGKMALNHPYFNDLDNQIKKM
Chain of Cdk1/Cyclin B (P14635 whole entry partner, species assumed): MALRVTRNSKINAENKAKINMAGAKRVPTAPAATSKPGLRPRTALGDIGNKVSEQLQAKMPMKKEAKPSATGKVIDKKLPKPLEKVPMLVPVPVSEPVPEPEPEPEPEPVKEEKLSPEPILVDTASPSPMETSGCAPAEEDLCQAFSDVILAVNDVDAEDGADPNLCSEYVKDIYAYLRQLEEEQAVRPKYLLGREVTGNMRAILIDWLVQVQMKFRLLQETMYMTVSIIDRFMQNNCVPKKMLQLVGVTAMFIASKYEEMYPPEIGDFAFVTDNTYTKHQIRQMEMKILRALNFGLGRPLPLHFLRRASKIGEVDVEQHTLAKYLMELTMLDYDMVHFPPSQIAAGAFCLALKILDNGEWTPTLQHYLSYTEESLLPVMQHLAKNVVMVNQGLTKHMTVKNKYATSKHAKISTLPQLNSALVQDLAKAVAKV
Chain of CHK2 (O96017 whole entry, species assumed): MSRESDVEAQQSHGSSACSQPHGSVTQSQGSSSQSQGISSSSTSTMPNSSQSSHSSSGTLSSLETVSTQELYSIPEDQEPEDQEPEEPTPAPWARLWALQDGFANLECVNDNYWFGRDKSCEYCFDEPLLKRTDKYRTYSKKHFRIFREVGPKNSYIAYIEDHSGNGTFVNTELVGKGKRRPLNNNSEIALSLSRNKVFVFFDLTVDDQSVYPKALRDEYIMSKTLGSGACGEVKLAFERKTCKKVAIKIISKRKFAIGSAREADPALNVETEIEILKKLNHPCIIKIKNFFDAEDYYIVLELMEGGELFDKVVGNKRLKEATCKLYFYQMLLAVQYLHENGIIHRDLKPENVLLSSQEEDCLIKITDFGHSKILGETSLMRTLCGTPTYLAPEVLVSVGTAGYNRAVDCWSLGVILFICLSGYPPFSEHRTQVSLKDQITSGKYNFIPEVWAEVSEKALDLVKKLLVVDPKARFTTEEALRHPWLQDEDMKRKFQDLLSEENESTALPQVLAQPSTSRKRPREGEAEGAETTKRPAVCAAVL
Chain of p38δ (O15264 whole entry): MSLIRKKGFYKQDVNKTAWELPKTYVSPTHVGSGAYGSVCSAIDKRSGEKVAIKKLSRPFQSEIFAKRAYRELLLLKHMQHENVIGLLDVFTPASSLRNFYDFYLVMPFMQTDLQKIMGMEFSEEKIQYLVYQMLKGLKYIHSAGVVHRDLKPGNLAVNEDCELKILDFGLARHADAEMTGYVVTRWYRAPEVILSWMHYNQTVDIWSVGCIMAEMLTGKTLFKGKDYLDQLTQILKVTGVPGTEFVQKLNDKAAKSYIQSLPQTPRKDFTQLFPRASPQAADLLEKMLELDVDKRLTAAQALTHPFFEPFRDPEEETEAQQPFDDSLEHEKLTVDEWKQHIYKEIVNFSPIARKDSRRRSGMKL

## Cc1cccc(-c2[nH]c(Cc3cccc(C(N)=O)c3)nc2-c2ccc3nccnc3c2)n1 [Example 41, 3-((5-(6-methylpyridin-2-yl)-4-(quinoxalin-6-yl)-1(3)H-imidazol-2-yl)methyl)benzamide]
GSK-3β
  inhibition at 10 µM: 21%
PKA, non-selective
  % inhibition at 10 μM: 27%
PKCγ
  inhibition at 10 µM: 3%
p38α; 1 μM
  inhibition at 1 µM: 25%
p38α; 10 μM
  inhibition at 10 µM: 76%
CHK1
  inhibition at 10 µM: 10%
JNK1α1
  inhibition at 10 µM: 11%
CHK2
  inhibition at 10 µM: 18%
PKCβ2
  inhibition at 10 µM: -2%
PKCα
  inhibition at 10 µM: -6%
Cdk5/p35
  inhibition at 10 µM: -2%
PKCβ1
  inhibition at 10 µM: 10%
PKBα/Akt1
  inhibition at 10 µM: 17%
PKCε
  inhibition at 10 µM: 1%
Lyn A
  inhibition at 10 µM: 37%
Lyn A; 10 µM
  % inhibition at 10 μM: 42%
IKK-1
  inhibition at 10 µM: 2%
PKCζ
  inhibition at 10 µM: -9%
HER2 receptor
  inhibition at 10 µM: 11%
IKK-2
  inhibition at 10 µM: 1%
p70^56k
  inhibition at 10 µM: -3%
ALK5
  IC50: 5.3 nM
Cdk2/Cyclin A
  inhibition at 10 µM: 6%
EGF Receptor
  inhibition at 10 µM: 2%
Cdk1/Cyclin B
  inhibition at 10 µM: -3%
PKCη
  inhibition at 10 µM: -6%
p38δ
  inhibition at 10 µM: -19%
Lck
  inhibition at 10 µM: 17%
MEK1; 1 μM
  inhibition at 1 µM: 4%
MEK1; 10 μM
  inhibition at 10 µM: 66%
PKCμ; 1 μM
  inhibition at 1 µM: 31%
PKCμ; 10 μM
  inhibition at 10 µM: 64%
ERK1
  inhibition at 10 µM: 51%
JNK2α2; 1 μM
  inhibition at 1 µM: 40%
JNK2α2; 10 μM
  inhibition at 10 µM: 81%
Insulin receptor
  inhibition at 10 µM: 15%
p38β
  inhibition at 10 µM: 48%
PDK1
  inhibition at 10 µM: 3%
pp60^C-SRC
  inhibition at 10 µM: -3%
Ca^2+/Calmodulin-Dep. II
  % inhibition at 10 μM: 1%
p38γ
  inhibition at 10 µM: 15%
PKCδ
  inhibition at 10 µM: 3%

From patent US7407958B2, “2-pyridyl substituted imidazoles as ALK5 and/or ALK4 inhibitors” (SK Chemicals Co., Ltd., priority 2004, dated 2008)
